Source: patent publication US20220389061A1, “IMMUNOMODULATORS” (priority 2019, published 2022)
pIC50: −log10 of the molar value. Read-outs that look alike come from different tables or passages of the source. Starred links: 1 amine or outer side, 2 acyl side, 3 side chain; linkers in the order of their positions; H or OH if unused. Positions of bridges follow the written chain, without caps; N, C: chain ends. Non-standard residues stand in square brackets, D forms with d. Residues, ends and D or L forms follow the SMILES beside them. Groups on a side chain read outwards from the residue. *: point of attachment. Trp(1-CH2COOH) = N[C@@H](Cc1cn(CC(=O)O)c2ccccc12)C(=O)O; NH(benzothiophen-5-yl) = c1cc2cc(N*)ccc2s1; X95 = O=[N+]([O-])c1cccc(NC(=S)*)c1; X49 = N#Cc1ccccc1NC(=N)c1ccccc1N*; Hyp = O=C(O)[C@@H]1C[C@@H](O)CN1; X55 = COc1cc(NC(=S)*)cc(OC)c1; X69 = c1ccc(-c2ccc(N*)cc2)cc1; NMeNle = CCCC[C@H](NC)C(=O)O; X86 = CCOc1ccc(NC(=S)*)cc1; NMeA = CN[C@@H](C)C(=O)O; Dab = NCC[C@H](N)C(=O)O; Dap = NC[C@H](N)C(=O)O; CO = O=C([*:1])[*:2]

Target: T1, PD-1/PD-L1 (Homo sapiens, UniProt Q9NZQ7)
T1 construct: TVMV protease site linker (C); made in house; host or cells: HEK293T cells
T1 sequence (Q9NZQ7 18-239): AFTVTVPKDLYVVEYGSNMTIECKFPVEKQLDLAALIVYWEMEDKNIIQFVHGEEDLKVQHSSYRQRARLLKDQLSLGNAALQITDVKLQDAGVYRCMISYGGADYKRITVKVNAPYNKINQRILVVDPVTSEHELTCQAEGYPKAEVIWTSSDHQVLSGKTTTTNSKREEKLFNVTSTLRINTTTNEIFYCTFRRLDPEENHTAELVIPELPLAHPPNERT
Assay: PD-1/PD-L1 Homogenous Time-Resolved Fluorescence (HTRF) binding assay
Excerpt: The ability of the compounds of formula (I) to bind to PD-L1 was investigated using a PD-1/PD-L1 Homogenous Time-Resolved Fluorescence (HTRF) binding assay.
The interaction of PD-1 and PD-L1 can be assessed using soluble, purified preparations of the extracellular domains of the two proteins. The PD-1 and PD-L1 protein extracellular domains were expressed as fusion proteins with detection tags, for PD-1, the tag was the Fc portion of Immunoglobulin (PD-1-Ig) and for PD-L1 it was the 6 histidine motif (PD-L1-His). All binding studies were performed in an HTRF assay buffer consisting of dPBS supplemented with 0.1% […] bovine serum albumin and 0.05% (v/v) Tween-20. For the h/PD-L1-His binding assay, inhibitors were pre-incubated with PD-L1-His (10 nM final) for 15 m in 4 μl of assay buffer, followed by addition of PD-1-Ig (20 nM final) in 1 μl of assay buffer and further incubation for 15 m. HTRF detection was achieved using europium crypate-labeled anti-Ig (1 nM final) and allophycocyanin (APC) labeled anti-His (20 nM final). Antibodies were diluted in HTRF detection buffer and 5 μl was dispensed on top of the binding reaction. […] Additional binding assays were established between the human proteins PD-1-Ig/PD-L2-His (20 & 5 nM, respectively) and CD80-His/PD-L1-Ig (100 & 10 nM, respectively). […]

[1] = PD-L1-His 10 nM pre-incubated with inhibitor, PD-1-Ig 20 nM, read-out: HTRF IC50

Row | SMILES | pIC50 [1] | pIC50
1 | CCCC[C@H]1C(=O)N(C)[C@@H](CCCC)C(=O)N[C@@H](CC(C)C)C(=O)N[C@H](C(=O)NCC(N)=O)CSCC(=O)N[C@@H](Cc2ccc(O)cc2)C(=O)N(C)[C@@H](C)C(=O)N[C@@H](CC(N)=O)C(=O)N2CCC[C@H]2C(=O)N[C@@H](CNC(=O)Nc2ccc(-c3ccccc3)cc2)C(=O)N[C@@H](CC(C)C)C(=O)N2C[C@H](O)C[C@H]2C(=O)N[C@@H](Cc2c[nH]c3ccccc23)C(=O)N[C@@H](CCNC(=O)Nc2ccc(-c3ccccc3)cc2)C(=O)N[C@@H](Cc2cn(CC(=O)O)c3ccccc23)C(=O)N1C [Example 1011] ({CH2CO}-Y[NMeA]NP[Dap]([CO-X69])L[Hyp]W[Dab]([CO-X69])[Trp(1-CH2COOH)][NMeNle][NMeNle]LCG-NH2; thioether N-14) | – | 7.77
2 | CCCC[C@H]1C(=O)N(C)[C@@H](CCCC)C(=O)N[C@@H](CC(C)C)C(=O)N[C@H](C(=O)NCC(N)=O)CSCC(=O)N[C@@H](Cc2ccc(O)cc2)C(=O)N(C)[C@@H](C)C(=O)N[C@@H](CC(N)=O)C(=O)N2CCC[C@H]2C(=O)N[C@@H](CNC(=O)Nc2ccccc2C(=N)Nc2ccccc2C#N)C(=O)N[C@@H](CC(C)C)C(=O)N2C[C@H](O)C[C@H]2C(=O)N[C@@H](Cc2c[nH]c3ccccc23)C(=O)N[C@@H](CCNC(=S)Nc2cc(OC)cc(OC)c2)C(=O)N[C@@H](Cc2cn(CC(=O)O)c3ccccc23)C(=O)N1C [Example 1088] ({CH2CO}-Y[NMeA]NP[Dap]([CO-X49])L[Hyp]W[Dab](X55)[Trp(1-CH2COOH)][NMeNle][NMeNle]LCG-NH2; thioether N-14) | 8.54 | –

Now from value to compound, other results behind:

Row | pIC50 [1] | SMILES | pIC50
3 | 8.28 | CCCC[C@H]1C(=O)N(C)[C@@H](CCCC)C(=O)N[C@@H](CC(C)C)C(=O)N[C@H](C(=O)NCC(N)=O)CSCC(=O)N[C@@H](Cc2ccc(O)cc2)C(=O)N(C)[C@@H](C)C(=O)N[C@@H](CC(N)=O)C(=O)N2CCC[C@H]2C(=O)N[C@@H](CN)C(=O)N[C@@H](CC(C)C)C(=O)N2C[C@H](O)C[C@H]2C(=O)N[C@@H](Cc2c[nH]c3ccccc23)C(=O)N[C@@H](CCNC(=O)Nc2ccc3sccc3c2)C(=O)N[C@@H](Cc2cn(CC(=O)O)c3ccccc23)C(=O)N1C [Example 3038] ({CH2CO}-Y[NMeA]NP[Dap]L[Hyp]W[Dab]([CO-NH(benzothiophen-5-yl)])[Trp(1-CH2COOH)][NMeNle][NMeNle]LCG-NH2; thioether N-14) | –
4 | 8.37 | CCCC[C@H]1C(=O)N(C)[C@@H](CCCC)C(=O)N[C@@H](CC(C)C)C(=O)N[C@H](C(=O)NCC(N)=O)CSCC(=O)N[C@@H](Cc2ccc(O)cc2)C(=O)N(C)[C@@H](C)C(=O)N[C@@H](CC(N)=O)C(=O)N2CCC[C@H]2C(=O)N[C@@H](CNC(=S)Nc2ccc(OCC)cc2)C(=O)N[C@@H](CC(C)C)C(=O)N2C[C@H](O)C[C@H]2C(=O)N[C@@H](Cc2c[nH]c3ccccc23)C(=O)N[C@@H](CCN)C(=O)N[C@@H](Cc2cn(CC(=O)O)c3ccccc23)C(=O)N1C [Example 1026] ({CH2CO}-Y[NMeA]NP[Dap](X86)L[Hyp]W[Dab][Trp(1-CH2COOH)][NMeNle][NMeNle]LCG-NH2; thioether N-14) | –
5 | 8.55 | CCCC[C@H]1C(=O)N(C)[C@@H](CCCC)C(=O)N[C@@H](CC(C)C)C(=O)N[C@H](C(=O)NCC(N)=O)CSCC(=O)N[C@@H](Cc2ccc(O)cc2)C(=O)N(C)[C@@H](C)C(=O)N[C@@H](CC(N)=O)C(=O)N2CCC[C@H]2C(=O)N[C@@H](CNC(=S)Nc2cccc([N+](=O)[O-])c2)C(=O)N[C@@H](CC(C)C)C(=O)N2C[C@H](O)C[C@H]2C(=O)N[C@@H](Cc2c[nH]c3ccccc23)C(=O)N[C@@H](CCN)C(=O)N[C@@H](Cc2cn(CC(=O)O)c3ccccc23)C(=O)N1C [Example 1037] ({CH2CO}-Y[NMeA]NP[Dap](X95)L[Hyp]W[Dab][Trp(1-CH2COOH)][NMeNle][NMeNle]LCG-NH2; thioether N-14) | –
